Tested on: TPM3-NTRK1-wt IC50 / primary target (e.g. CD74-ROS1-wt) IC50, Ba/F3 cells
Experiment: Cell assay TRKA selectivity (TRKA potency divided by primary target potency)
Type: cell-based
Conditions: for TPM3-NTRK1-wt/CD74-ROS1-G2032R: TRKA selectivity ratio: TPM3-NTRK1-wt IC50 / CD74-ROS1-G2032R IC50, Ba/F3 cells; for TPM3-NTRK1-wt/CD74-ROS1-wt: TRKA selectivity ratio: TPM3-NTRK1-wt IC50 / CD74-ROS1-wt IC50, Ba/F3 cells; for TPM3-NTRK1-wt/EML4-ALK-L1196M-G1202R: TRKA selectivity ratio: TPM3-NTRK1-wt IC50 / EML4-ALK-L1196M-G1202R IC50, Ba/F3 cells; for TPM3-NTRK1-wt/EML4-ALK-wt: TRKA selectivity ratio: TPM3-NTRK1-wt IC50 / EML4-ALK-wt IC50, Ba/F3 cells
Procedure, shortened: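 Ratio of TRKA to primary-target cellular IC50 (e.g. TPM3-NTRK1-wt/CD74-ROS1-wt), grouped into bins A >30, B >10, C ≥1, D <1. Each IC50 came from engineered Ba/F3 fusion lines grown without IL-3, dosed for 72 h and read as CellTiter-Glo luminescence, with a four-parameter logistic fit.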

How did the TPM3-NTRK1-wt/CD74-ROS1-G2032R turn out when CCn1nc(Cl)c2c1-c1cnc(N)c(c1)O[C@H](C)c1cc(F)ccc1-c1nn(C)cc1C2 [Example 73, (19R)-5-chloro-3-ethyl-16-fluoro-10,19-dimethyl-20-oxa-3,4,10,11,23-pentaazapentacyclo[19.3.1.0^2,^6.0^8,^12.0^13,^18]pentacosa-1(24),2(6),4,8,11,13,15,17,21(25),22-decaen-22-amine] was run?
Its TPM3-NTRK1-wt/CD74-ROS1-G2032R is “A (bin A for very high selectivity, ratio>30-fold)”.

And the TPM3-NTRK1-wt/CD74-ROS1-wt?
The TPM3-NTRK1-wt/CD74-ROS1-wt was “A (bin A for very high selectivity, ratio>30-fold)”.

What about the TPM3-NTRK1-wt/EML4-ALK-L1196M-G1202R of the same molecule?
Its TPM3-NTRK1-wt/EML4-ALK-L1196M-G1202R is “B (bin B for high selectivity, ratio>10-fold)”.

What about the TPM3-NTRK1-wt/EML4-ALK-wt of the same molecule?
Its TPM3-NTRK1-wt/EML4-ALK-wt is “A (bin A for very high selectivity, ratio>30-fold)”.

Which TPM3-NTRK1-wt/CD74-ROS1-G2032R does the source give for C[C@H]1Oc2cc(cnc2N)-c2c(CC3CC3)nn(C)c2Cc2cn(C)nc2-c2ccc(F)cc21 [Example 178, (19R)-3-(cyclopropylmethyl)-16-fluoro-5,10,19-trimethyl-20-oxa-4,5,10,11,23-pentaazapentacyclo[19.3.1.0^2,^6.0^8,^12.0^13,^18]pentacosa-1(24),2(6),3,8,11,13,15,17,21(25),22-decaen-22-amine] here?
The TPM3-NTRK1-wt/CD74-ROS1-G2032R was “A (bin A for very high selectivity, ratio>30-fold)”.

And the TPM3-NTRK1-wt/CD74-ROS1-wt?
Its TPM3-NTRK1-wt/CD74-ROS1-wt is “A (bin A for very high selectivity, ratio>30-fold)”.

And the TPM3-NTRK1-wt/EML4-ALK-L1196M-G1202R?
Its TPM3-NTRK1-wt/EML4-ALK-L1196M-G1202R is “A (bin A for very high selectivity, ratio>30-fold)”.

And the TPM3-NTRK1-wt/EML4-ALK-wt?
Its TPM3-NTRK1-wt/EML4-ALK-wt is “A (bin A for very high selectivity, ratio>30-fold)”.

What does the source list for CC1Oc2cc(cnc2N)-c2c(cnn2C)Cc2cnn(C)c2-c2ccc(F)cc21 (centres unmarked) [Example 2, 16-fluoro-3,11,19-trimethyl-20-oxa-3,4,10,11,23-pentaazapentacyclo[19.3.1.0^2,^6.0^8,^12.0^13,^18]pentacosa-1(24),2(6),4,8(12),9,13,15,17,21(25),22-decaen-22-amine]?
TPM3-NTRK1-wt/CD74-ROS1-G2032R: B (bin B for high selectivity, ratio>10-fold); TPM3-NTRK1-wt/CD74-ROS1-wt: A (bin A for very high selectivity, ratio>30-fold); TPM3-NTRK1-wt/EML4-ALK-L1196M-G1202R: D (bin D for low selectivity, ratio<1); TPM3-NTRK1-wt/EML4-ALK-wt: B (bin B for high selectivity, ratio>10-fold)

What does the source list for C[C@H]1Oc2cc(cnc2N)-c2c(nn(C)c2CC2CC2)Cc2ccnn2-c2ccc(F)cc21 [Example 177, (19R)-3-(cyclopropylmethyl)-16-fluoro-4,19-dimethyl-20-oxa-4,5,11,12,23-pentaazapentacyclo[19.3.1.0^2,^6.0^8,^12.0^13,^18]pentacosa-1(24),2,5,8,10,13,15,17,21(25),22-decaen-22-amine]?
TPM3-NTRK1-wt/CD74-ROS1-G2032R: A (bin A for very high selectivity, ratio>30-fold); TPM3-NTRK1-wt/CD74-ROS1-wt: A (bin A for very high selectivity, ratio>30-fold); TPM3-NTRK1-wt/EML4-ALK-L1196M-G1202R: B (bin B for high selectivity, ratio>10-fold); TPM3-NTRK1-wt/EML4-ALK-wt: A (bin A for very high selectivity, ratio>30-fold)

CCn1ncc2c1-c1cnc(N)c(c1)OC(C)c1cc(F)ccc1-c1cnccc1C2 (centres unmarked) [Example 35, 3-ethyl-17-fluoro-20-methyl-21-oxa-3,4,11,24-tetraazapentacyclo[20.3.1.0^2,^6.0^8,^13.0^14,^19]hexacosa-1(25),2(6),4,8(13),9,11,14,16,18,22(26),23-undecaen-23-amine] was tested. Which TPM3-NTRK1-wt/CD74-ROS1-G2032R did it give?
The TPM3-NTRK1-wt/CD74-ROS1-G2032R was “A (bin A for very high selectivity, ratio>30-fold)”.

What about the TPM3-NTRK1-wt/CD74-ROS1-wt of the same molecule?
The TPM3-NTRK1-wt/CD74-ROS1-wt was “A (bin A for very high selectivity, ratio>30-fold)”.

What about the TPM3-NTRK1-wt/EML4-ALK-L1196M-G1202R of the same molecule?
The TPM3-NTRK1-wt/EML4-ALK-L1196M-G1202R was “C (bin C for moderate selectivity, ratio≥1)”.

What about the TPM3-NTRK1-wt/EML4-ALK-wt of the same molecule?
The TPM3-NTRK1-wt/EML4-ALK-wt was “A (bin A for very high selectivity, ratio>30-fold)”.

For Cc1nc2c(s1)Cc1c(c(C#N)nn1C)-c1cnc(N)c(c1)OCc1cc(F)ccc1-2 [Example 115, 22-amino-16-fluoro-5,10-dimethyl-20-oxa-9-thia-4,5,11,23-tetraazapentacyclo[19.3.1.0^2,^6.0^8,^12.0^13,^18]pentacosa-1(24),2(6),3,8(12),10,13,15,17,21(25),22-decaene-3-carbonitrile], which TPM3-NTRK1-wt/CD74-ROS1-G2032R is on record?
The TPM3-NTRK1-wt/CD74-ROS1-G2032R was “A (bin A for very high selectivity, ratio>30-fold)”.

And the TPM3-NTRK1-wt/CD74-ROS1-wt?
The TPM3-NTRK1-wt/CD74-ROS1-wt was “A (bin A for very high selectivity, ratio>30-fold)”.

And the TPM3-NTRK1-wt/EML4-ALK-L1196M-G1202R?
Its TPM3-NTRK1-wt/EML4-ALK-L1196M-G1202R is “B (bin B for high selectivity, ratio>10-fold)”.

What about the TPM3-NTRK1-wt/EML4-ALK-wt of the same molecule?
The TPM3-NTRK1-wt/EML4-ALK-wt was “A (bin A for very high selectivity, ratio>30-fold)”.

What does the source list for C[C@H]1Oc2cc(cnc2N)-c2c(C#N)nn(C)c2Cc2cc(Cl)nn2-c2ccc(F)cc21 [Example 103, (19R)-22-amino-10-chloro-16-fluoro-5,19-dimethyl-20-oxa-4,5,11,12,23-pentaazapentacyclo[19.3.1.0^2,^6.0^8,^12.0^13,^18]pentacosa-1(24),2(6),3,8,10,13,15,17,21(25),22-decaene-3-carbonitrile]?
TPM3-NTRK1-wt/CD74-ROS1-G2032R: A (bin A for very high selectivity, ratio>30-fold); TPM3-NTRK1-wt/CD74-ROS1-wt: A (bin A for very high selectivity, ratio>30-fold); TPM3-NTRK1-wt/EML4-ALK-L1196M-G1202R: B (bin B for high selectivity, ratio>10-fold); TPM3-NTRK1-wt/EML4-ALK-wt: A (bin A for very high selectivity, ratio>30-fold)

How did the TPM3-NTRK1-wt/CD74-ROS1-G2032R turn out when CCn1ncc2c1-c1cnc(N)c(c1)OCc1cc(F)ccc1-n1nc(C(F)(F)F)cc1C2 [Example 92, 3-ethyl-16-fluoro-10-(trifluoromethyl)-20-oxa-3,4,11,12,23-pentaazapentacyclo[19.3.1.0^2,^6.0^8,^12.0^13,^18]pentacosa-1(24),2(6),4,8,10,13,15,17,21(25),22-decaen-22-amine] was run?
Its TPM3-NTRK1-wt/CD74-ROS1-G2032R is “A (bin A for very high selectivity, ratio>30-fold)”.

And the TPM3-NTRK1-wt/CD74-ROS1-wt?
The TPM3-NTRK1-wt/CD74-ROS1-wt was “A (bin A for very high selectivity, ratio>30-fold)”.

What about the TPM3-NTRK1-wt/EML4-ALK-L1196M-G1202R of the same molecule?
Its TPM3-NTRK1-wt/EML4-ALK-L1196M-G1202R is “C (bin C for moderate selectivity, ratio≥1)”.

And the TPM3-NTRK1-wt/EML4-ALK-wt?
The TPM3-NTRK1-wt/EML4-ALK-wt was “C (bin C for moderate selectivity, ratio≥1)”.

How did the TPM3-NTRK1-wt/CD74-ROS1-G2032R turn out when CCn1ncc2c1-c1cnc(N)c(c1)OCc1cc(F)ccc1-c1nn(C)cc1C2 [Example 49, 3-ethyl-16-fluoro-10-methyl-20-oxa-3,4,10,11,23-pentaazapentacyclo[19.3.1.0^2,^6.0^8,^12.0^13,^18]pentacosa-1(24),2(6),4,8,11,13,15,17,21(25),22-decaen-22-amine] was run?
Its TPM3-NTRK1-wt/CD74-ROS1-G2032R is “A (bin A for very high selectivity, ratio>30-fold)”.

What about the TPM3-NTRK1-wt/CD74-ROS1-wt of the same molecule?
Its TPM3-NTRK1-wt/CD74-ROS1-wt is “A (bin A for very high selectivity, ratio>30-fold)”.

And the TPM3-NTRK1-wt/EML4-ALK-L1196M-G1202R?
The TPM3-NTRK1-wt/EML4-ALK-L1196M-G1202R was “B (bin B for high selectivity, ratio>10-fold)”.

And the TPM3-NTRK1-wt/EML4-ALK-wt?
Its TPM3-NTRK1-wt/EML4-ALK-wt is “A (bin A for very high selectivity, ratio>30-fold)”.

Which results are given for C[C@H]1Oc2cc(cnc2N)-c2c(C#N)cnn2Cc2ccnn2-c2ccc(F)cc21 [Example 62, (19R)-22-amino-16-fluoro-19-methyl-20-oxa-5,6,11,12,23-pentaazapentacyclo[19.3.1.0^2,^6.0^8,^12.0^13,^18]pentacosa-1(24),2,4,8,10,13,15,17,21(25),22-decaene-3-carbonitrile]?
TPM3-NTRK1-wt/CD74-ROS1-G2032R: B (bin B for high selectivity, ratio>10-fold); TPM3-NTRK1-wt/CD74-ROS1-wt: A (bin A for very high selectivity, ratio>30-fold); TPM3-NTRK1-wt/EML4-ALK-L1196M-G1202R: C (bin C for moderate selectivity, ratio≥1); TPM3-NTRK1-wt/EML4-ALK-wt: A (bin A for very high selectivity, ratio>30-fold)

Which results are given for CCn1ncc2c1-c1cnc(N)c(c1)OCc1cc(F)ccc1-n1nc(C)cc1C2 [Example 69, 3-ethyl-16-fluoro-10-methyl-20-oxa-3,4,11,12,23-pentaazapentacyclo[19.3.1.0^2,^6.0^8,^12.0^13,^18]pentacosa-1(24),2(6),4,8,10,13,15,17,21(25),22-decaen-22-amine]?
TPM3-NTRK1-wt/CD74-ROS1-G2032R: A (bin A for very high selectivity, ratio>30-fold); TPM3-NTRK1-wt/CD74-ROS1-wt: A (bin A for very high selectivity, ratio>30-fold); TPM3-NTRK1-wt/EML4-ALK-L1196M-G1202R: B (bin B for high selectivity, ratio>10-fold); TPM3-NTRK1-wt/EML4-ALK-wt: A (bin A for very high selectivity, ratio>30-fold)
